Consider 24 compounds from patent US10227323B2, “Glucosylceramide synthase inhibitors for the treatment of diseases” (BIOMARIN PHARMACEUTICAL INC., priority 2013, dated 2019).

In the first test the target is T1, GCS (Canis lupus familiaris, UniProt A0A8I3MXG6).
T1 sequence (A0A8I3MXG6 1-394): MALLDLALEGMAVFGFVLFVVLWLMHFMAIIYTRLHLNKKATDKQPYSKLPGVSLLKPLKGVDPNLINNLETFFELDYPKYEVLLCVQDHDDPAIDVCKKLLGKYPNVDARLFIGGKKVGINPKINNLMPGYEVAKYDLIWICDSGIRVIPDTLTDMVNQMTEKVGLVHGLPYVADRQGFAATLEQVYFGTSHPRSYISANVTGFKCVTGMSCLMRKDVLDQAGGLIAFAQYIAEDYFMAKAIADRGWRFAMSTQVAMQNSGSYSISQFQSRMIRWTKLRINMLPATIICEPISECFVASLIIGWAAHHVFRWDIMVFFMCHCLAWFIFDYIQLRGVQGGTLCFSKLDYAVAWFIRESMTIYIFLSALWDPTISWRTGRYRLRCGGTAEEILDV
The test is described as follows: Assay 1: GCS Enzymatic Assay (MDCK cell lysate, C6-NBD-Ceramide, LC/MS). It counts as biochemical, canine. The conditions noted are these: Table 2; data marked by *. A digest of the protocol:
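LC/MS/MS measurement of glucosylceramide and NBD-ceramide after a 1 h, 37 °C reaction with 100 μM UDP-glucose and 10 μM C6-NBD-ceramide gave IC50s or percent inhibition.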
As for `Cn1ncc2ccc(-c3cccc(C(=O)C(=O)N[C@H](CN4CCCC4)[C@H](O)c4ccc(OC5CC5)c(Cl)c4)c3)cc21` [Example 261, N-((1R,2R)-1-(3-chloro-4-cyclopropoxyphenyl)-1-hydroxy-3-(pyrrolidin-1-yl)propan-2-yl)-2-(3-(1-methyl-1H-indazol-6-yl)phenyl)-2-oxoacetamide], the “% inhibition generated from Assay 1” value is given as “A* (the compound had a % inhibition of a percent inhibition of greater than or equal to about 50%)”.

Consider `O=C(N[C@H](CN1CCCC1)[C@H](O)c1ccc(OC2CC2)c(Cl)c1)C(=O)N1CCN(c2ccc(F)cc2)CC1` [Example 262, N-((1R,2R)-1-(3-chloro-4-cyclopropoxyphenyl)-1-hydroxy-3-(pyrrolidin-1-yl)propan-2-yl)-2-(4-(4-fluorophenyl)piperazin-1-yl)-2-oxoacetamide], for which the “% inhibition generated from Assay 1” value was “B* (the compound had a % inhibition of greater than or equal to about 3% but less than about 50%)”.

`O=C(N[C@H](CN1CCCC1)[C@H](O)c1ccc(OC2CC2)c(C(F)(F)F)c1)C(=O)c1ccc(-c2ccc(F)cc2)cc1` [Example 265, N-((1R,2R)-1-(4-cyclopropoxy-3-(trifluoromethyl)phenyl)-1-hydroxy-3-(pyrrolidin-1-yl)propan-2-yl)-2-(4′-fluoro-[1,1′-biphenyl]-4-yl)-2-oxoacetamide]: the “% inhibition generated from Assay 1” value is reported as “B* (the compound had a % inhibition of greater than or equal to about 3% but less than about 50%)”.

The test is the same for the next values; noted with them: Table 2; data without asterisk; read-out: IC50 (nM) generated from Assay 1.
The term IC50 denotes the concentration that gives 50% inhibition. For the compound `O=C(N[C@H](CN1CCCC1)[C@H](O)c1cc(F)c2c(c1)OCCO2)C(=O)c1cc2ccc(Cl)cc2o1` [Compound 366, 2-(6-chlorobenzofuran-2-yl)-N-((1R,2R)-1-(8-fluoro-2,3-dihydrobenzo[b][1,4]dioxin-6-yl)-1-hydroxy-3-(pyrrolidin-1-yl)propan-2-yl)-2-oxoacetamide], the IC50 is less than 50 nM.

On to `O=C(N[C@H](CN1CCCC1)[C@H](O)c1ccc(OC2CC2)c(Cl)c1)C(=O)c1ccc(N2CCOCC2)cc1` [Compound 368, N-((1R,2R)-1-(3-chloro-4-cyclopropoxyphenyl)-1-hydroxy-3-(pyrrolidin-1-yl)propan-2-yl)-2-(4-morpholinophenyl)-2-oxoacetamide], for which the IC50 is less than 50 nM.

`O=C(N[C@H](CN1CCC1)[C@H](O)c1cc(F)c2c(c1)OCCO2)C(=O)c1ccc(N2CCOCC2)cc1` [Compound 369, N-((1R,2R)-3-(azetidin-1-yl)-1-(8-fluoro-2,3-dihydrobenzo[b][1,4]dioxin-6-yl)-1-hydroxypropan-2-yl)-2-(4-morpholinophenyl)-2-oxoacetamide]: the IC50 is less than 50 nM.

Turning to `O=C(N[C@H](CN1CCCC1)[C@H](O)c1ccc(OC2CC2)c(Cl)c1)C(=O)c1ccc(-c2ccc(C3CC3)cc2)cc1` [Compound 370, N-((1R,2R)-1-(3-chloro-4-cyclopropoxyphenyl)-1-hydroxy-3-(pyrrolidin-1-yl)propan-2-yl)-2-(4′-cyclopropyl-[1,1′-biphenyl]-4-yl)-2-oxoacetamide], the IC50 is less than 50 nM.

In the case of `O=C(N[C@H](CN1CCCC1)[C@H](O)c1cc(F)c2c(c1)OCCO2)C(=O)c1ccc(-c2ccc(C3CC3)cc2)cc1` [Compound 371, 2-(4′-cyclopropyl-[1,1′-biphenyl]-4-yl)-N-((1R,2R)-1-(8-fluoro-2,3-dihydrobenzo[b][1,4]dioxin-6-yl)-1-hydroxy-3-(pyrrolidin-1-yl)propan-2-yl)-2-oxoacetamide], the IC50 is less than 50 nM.

On to `O=C(N[C@H](CN1CCCC1)[C@H](O)c1ccc(OC2CC2)c(Cl)c1)C(=O)c1ccc(C2CCOCC2)cc1` [Compound 372, N-((1R,2R)-1-(3-chloro-4-cyclopropoxyphenyl)-1-hydroxy-3-(pyrrolidin-1-yl)propan-2-yl)-2-oxo-2-(4-(tetrahydro-2H-pyran-4-yl)phenyl)acetamide], for which the IC50 was less than 50 nM.

Consider `O=C(N[C@H](CN1CCCC1)[C@H](O)c1cc(F)c2c(c1)OCCO2)C(=O)c1ccc(C2CCOCC2)cc1` [Compound 373, N-((1R,2R)-1-(8-fluoro-2,3-dihydrobenzo[b][1,4]dioxin-6-yl)-1-hydroxy-3-(pyrrolidin-1-yl)propan-2-yl)-2-oxo-2-(4-(tetrahydro-2H-pyran-4-yl)phenyl)acetamide], for which the half-maximal inhibitory concentration (IC50) was less than 50 nM.

In the case of `O=C(N[C@H](CN1CCCC1)[C@H](O)c1ccc(OC2CC2)cc1)C(=O)c1ccc(N2CCOCC2)cc1` [Compound 374, N-((1R,2R)-1-(4-cyclopropoxyphenyl)-1-hydroxy-3-(pyrrolidin-1-yl)propan-2-yl)-2-(4-morpholinophenyl)-2-oxoacetamide], the IC50 was 50 to 5000 nM.

`O=C(N[C@H](CN1CCCC1)[C@H](O)c1ccc(OC2CC2)c(Cl)c1)C(=O)c1ccc(N2CCC2)cc1` [Compound 375, 2-(4-(azetidin-1-yl)phenyl)-N-((1R,2R)-1-(3-chloro-4-cyclopropoxyphenyl)-1-hydroxy-3-(pyrrolidin-1-yl)propan-2-yl)-2-oxoacetamide]: the IC50 is 50 to 5000 nM.

As to `O=C(N[C@H](CN1CCCC1)[C@H](O)c1ccc(OC2CC2)c(Cl)c1)C(=O)c1ccc(F)cc1` [Compound 376, N-((1R,2R)-1-(3-chloro-4-cyclopropoxyphenyl)-1-hydroxy-3-(pyrrolidin-1-yl)propan-2-yl)-2-(4-fluorophenyl)-2-oxoacetamide], the IC50 is less than 50 nM.

On to `O=C(N[C@H](CN1CCCC1)[C@H](O)c1ccc(OC2CC2)c(Cl)c1)C(=O)c1cc2ccccc2s1` [Compound 377, 2-(benzo[b]thiophen-2-yl)-N-((1R,2R)-1-(3-chloro-4-cyclopropoxyphenyl)-1-hydroxy-3-(pyrrolidin-1-yl)propan-2-yl)-2-oxoacetamide], for which the IC50 is less than 50 nM.

As for `C#Cc1ccc(C(=O)C(=O)N[C@H](CN2CCCC2)[C@H](O)c2ccc(OC3CC3)c(F)c2)cc1` [Compound 378, N-((1R,2R)-1-(4-cyclopropoxy-3-fluorophenyl)-1-hydroxy-3-(pyrrolidin-1-yl)propan-2-yl)-2-(4-ethynylphenyl)-2-oxoacetamide], the IC50 is less than 50 nM.

For `O=C(N[C@H](CN1CCCC1)[C@H](O)c1cc(F)c2c(c1)OCCO2)C(=O)c1ccc(F)cc1` [Compound 379, N-((1R,2R)-1-(8-fluoro-2,3-dihydrobenzo[b][1,4]dioxin-6-yl)-1-hydroxy-3-(pyrrolidin-1-yl)propan-2-yl)-2-(4-fluorophenyl)-2-oxoacetamide], the IC50 is less than 50 nM.

Turning to `O=C(N[C@H](CN1CCCC1)[C@H](O)c1ccc(OC2CC2)c(Cl)c1)C(=O)C1CCN(c2ccc(F)cc2)CC1` [Compound 380, N-((1R,2R)-1-(3-chloro-4-cyclopropoxyphenyl)-1-hydroxy-3-(pyrrolidin-1-yl)propan-2-yl)-2-(1-(4-fluorophenyl)piperidin-4-yl)-2-oxoacetamide], the half-maximal inhibitory concentration (IC50) fell in the range of 50 to 5000 nM.

Turning to `O=C(N[C@H](CN1CCC1)[C@H](O)c1ccc(OC2CC2)c(F)c1)C(=O)c1cc2ccc(Cl)cc2s1` [Compound 381, N-((1R,2R)-3-(azetidin-1-yl)-1-(4-cyclopropoxy-3-fluorophenyl)-1-hydroxypropan-2-yl)-2-(6-chlorobenzo[b]thiophen-2-yl)-2-oxoacetamide], the IC50 was less than 50 nM.

For `CN(C(=O)C(=O)c1ccc(-c2ccc(F)cc2)cc1)[C@H](CN1CCCC1)[C@H](O)c1ccc(OC2CC2)c(F)c1` [Compound 382, N-((1R,2R)-1-(4-cyclopropoxy-3-fluorophenyl)-1-hydroxy-3-(pyrrolidin-1-yl)propan-2-yl)-2-(4′-fluoro-[1,1′-biphenyl]-4-yl)-N-methyl-2-oxoacetamide], the IC50 is less than 50 nM.

As to `CN(C(=O)C(=O)c1cc2ccc(Cl)cc2s1)[C@H](CN1CCCC1)[C@H](O)c1ccc(OC2CC2)c(F)c1` [Compound 383, 2-(6-chlorobenzo[b]thiophen-2-yl)-N-((1R,2R)-1-(4-cyclopropoxy-3-fluorophenyl)-1-hydroxy-3-(pyrrolidin-1-yl)propan-2-yl)-N-methyl-2-oxoacetamide], the IC50 was less than 50 nM.

With `CC(C)n1ncc2cc(-c3ccc(C(=O)C(=O)N[C@H](CN4CCCC4)[C@H](O)c4ccc(OC5CC5)c(Cl)c4)cc3)ccc21` [Example 258, N-((1R,2R)-1-(3-chloro-4-cyclopropoxyphenyl)-1-hydroxy-3-(pyrrolidin-1-yl)propan-2-yl)-2-(4-(1-isopropyl-1H-indazol-5-yl)phenyl)-2-oxoacetamide], the IC50 is less than 50 nM.

In the case of `CC(C)n1cc2cc(-c3ccc(C(=O)C(=O)N[C@H](CN4CCCC4)[C@H](O)c4ccc(OC5CC5)c(Cl)c4)cc3)ccc2n1` [Example 259, N-((1R,2R)-1-(3-chloro-4-cyclopropoxyphenyl)-1-hydroxy-3-(pyrrolidin-1-yl)propan-2-yl)-2-(4-(2-isopropyl-2H-indazol-5-yl)phenyl)-2-oxoacetamide], the IC50 was less than 50 nM.

For `O=C(N[C@H](CN1CCCC1)[C@H](O)c1ccc(OC2CC2)c(Cl)c1)C(=O)c1ccc(-c2ccc3sc(Cl)cc3c2)cc1` [Example 263, N-((1R,2R)-1-(3-chloro-4-cyclopropoxyphenyl)-1-hydroxy-3-(pyrrolidin-1-yl)propan-2-yl)-2-(4-(2-chlorobenzo[b]thiophen-5-yl)phenyl)-2-oxoacetamide], the 50% inhibitory concentration (IC50) was less than 50 nM.

As for `O=C(N[C@H](CN1CCCC1)[C@H](O)c1ccc(OC2CC2)c(Cl)c1)C(=O)c1ccc(-c2ccc(F)cc2)cn1` [Example 264, N-((1R,2R)-1-(3-chloro-4-cyclopropoxyphenyl)-1-hydroxy-3-(pyrrolidin-1-yl)propan-2-yl)-2-(5-(4-fluorophenyl)pyridin-2-yl)-2-oxoacetamide], the IC50 was less than 50 nM.
